In US20050288488A1, “Ah receptor cDNA and genetically engineered cells for detecting agonists to the Ah receptor” (Northwestern University, priority 1993, published 2005):

What was measured:
[1] = system: AHR; details: reported, Knutson and Poland (1981); read-out: AHR binding constants (KD values); cited from earlier work
[2] = biological target: full-length human AHR (Homo sapiens, UniProt P35869, F659I); details: for activation of the AHR over background (β-galactosidase): yeast A303 AHR/ARNT/DRE system, average of at least three independent experiments
[3] = biological target: T1, AHR-LexA chimera (UniProt P0A7C2+P30561); type: cell-based; details: for induction of lac Z activity over background: yeast GRS4 chimeric AHR-LexA system, average
T1 construct: expressed in transfected cells; host or cells: Saccharomyces cerevisiae strain GRS4 (with pTT8/hsp82) transformed with pEGAHRNΔ166 and pSH18-34
Experimental: Poon, D., Schroeder, S., Wang, C. […] Biol. 11, 4809-4821. […] (1 minute) then 50° C. (1 minute) and then 72° C. (1 minute) for 25 cycles.
β-Galactosidase assays carried out on the AHR-LexANΔ166 chimera system were performed as above except for the following changes. Yeast strains were grown from a single colony overnight at 30° C. in 2 ml of selection medium containing either 2% glucose or 2% galactose as a carbon source. Fifty microliters of this primary culture was used to inoculate a 1-ml culture of the same media containing appropriate concentrations of agonist dissolved in Me2SO. The culture was grown for 16-18 hours with vigorous shaking at room temperature. β-Galactosidase activity was determined by adding a 50-μl aliquot of the cultures to 650 μl of Z-buffer, permeabilizing the cells, and incubating with ONPG at 30° C. for 30 minutes. β-Galactosidase units were determined using the following formula: (A420)/(A600 of 1/10 dilution of cells×volume of culture×length of incubation))×1000.
As described above, strain GRS4 was transformed with a AHR-LexAN 166 fusion plasmid, pEGAHRNΔ166 containing the chimeric Ah receptor and a LexA operator reporter plasmid pSH18-34. In this system, expression of the reporter gene was dependent on pEGAHRNΔ166 expresson and on the presence of agonist. […] The dose-response curves obtained from this chimeric receptor system closely paralleled those of the complete AHR/ARNT/DRE pathway expressed in A303 cells.

[4] = biological target: T2, human Ah-receptor (Homo sapiens, UniProt P35869, F659I); assay: photoaffinity labeling with [125I]-2-azido-3-iodo-7,8-dibromodibenzo-p-dioxin, competition by agonist; type: binding; details: excess of β-naphthoflavone; human cDNA expressed in COS-1 cells, cytosolic fraction
T2 construct: 102 nucleotides downstream of the stop codon of the full length human Ah-receptor cDNA clone; expressed in transfected cells; host or cells: COS-1 cells electroporated with phuAhR (cytosol, 10 mM molybdate); also in vitro translation in TNT rabbit reticulocyte lysate (Promega)
T2 sequence (P35869 11-848 F659I): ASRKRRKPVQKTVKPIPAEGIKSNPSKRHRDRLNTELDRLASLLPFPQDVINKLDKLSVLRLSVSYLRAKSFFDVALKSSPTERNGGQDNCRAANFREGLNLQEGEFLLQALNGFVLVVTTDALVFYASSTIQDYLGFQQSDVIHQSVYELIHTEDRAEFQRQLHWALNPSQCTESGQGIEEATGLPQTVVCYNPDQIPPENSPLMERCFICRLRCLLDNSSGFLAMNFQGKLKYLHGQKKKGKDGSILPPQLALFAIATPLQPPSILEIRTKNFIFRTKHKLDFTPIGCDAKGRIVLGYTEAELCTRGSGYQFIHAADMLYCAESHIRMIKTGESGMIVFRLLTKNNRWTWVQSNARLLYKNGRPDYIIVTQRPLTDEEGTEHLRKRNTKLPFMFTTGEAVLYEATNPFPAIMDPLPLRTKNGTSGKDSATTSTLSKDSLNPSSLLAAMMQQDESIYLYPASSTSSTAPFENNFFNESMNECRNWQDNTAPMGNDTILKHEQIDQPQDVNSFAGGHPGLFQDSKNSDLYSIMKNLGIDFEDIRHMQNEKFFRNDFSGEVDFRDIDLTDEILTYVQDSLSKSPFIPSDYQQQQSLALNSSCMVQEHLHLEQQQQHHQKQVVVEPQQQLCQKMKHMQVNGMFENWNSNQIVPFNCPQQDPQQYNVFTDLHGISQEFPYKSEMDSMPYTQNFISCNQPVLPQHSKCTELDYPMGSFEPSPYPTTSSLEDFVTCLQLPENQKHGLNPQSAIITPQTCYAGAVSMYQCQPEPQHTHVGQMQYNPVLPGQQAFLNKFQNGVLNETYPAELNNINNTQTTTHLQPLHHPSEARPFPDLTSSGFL
Experimental: (§1) Photoaffinity labeling using the ligand, [^125I]-2-azido-3-iodo-7,8-dibromodibenzo-p-dioxin (specific activity=0.5 μCiμl), was carried out in 50 μl reactions in MENG buffer. Samples were incubated with 0.25 μCi of ligand (0.1 pmoles) ±100 nM β-naphthoflavone 30 minutes at room temperature, cooled on ice and incubated with one fifth of charcoal/gelatin (3%/0.3% w/v) for 30 minutes on ice. The charocal/gelatin was subjected to centrifugation at 14,000 rpm for 5 minutes at 4° C. and the supernatant was irradiated with ultraviolet light at 0.8 J/cm2 followed by addition of 300 mM β-mercaptoethanol. Acetone precipitates were resuspended in 1×Laemmli sample buffer and subjected to 7.5% SDS-PAGE and autoradiograph as described in Sambrook, J., Fritsch, E. F., Maniatis, T., Molecular Cloning: A Laboratory Manual/second edition (Cold Spring Harbor Laboratory Press, 1989).
(§2) Photoaffinity labeling of murine (muAhR) and human (huAhR) Ah-receptors expressed in COS-1 cells. […]
(§3) Experiments were carried out using the TNT Coupled Reticulocyte Lysate System (PROMEGA). […] The efficiency of expression was analyzed in parallel experiments utilizing ^35S-methionine labeling and autoradiography and Western blot analysis using affinity-purified goat antibody raised against an N-terminal peptide derived from the murine Ah-receptor. […]

[5] = biological target: T3, murine Ah-receptor (Mus musculus, UniProt P30561); assay: as above; type: binding; details: excess of β-naphthoflavone; murine cDNA expressed in COS-1 cells, cytosolic fraction
T3 construct: The resulting full length murine Ah-receptor clone was then subcloned into the SpeI and HindIII sites of pSV-Sport1; expressed in transfected cells; host or cells: COS-1 cells electroporated with pmuAhR (cytosol); also in vitro translation in TNT rabbit reticulocyte lysate (Promega)
T3 sequence (P30561 10-805 S74T/M324I/F348L/P471L/N533S/M589L/T758A limits assumed): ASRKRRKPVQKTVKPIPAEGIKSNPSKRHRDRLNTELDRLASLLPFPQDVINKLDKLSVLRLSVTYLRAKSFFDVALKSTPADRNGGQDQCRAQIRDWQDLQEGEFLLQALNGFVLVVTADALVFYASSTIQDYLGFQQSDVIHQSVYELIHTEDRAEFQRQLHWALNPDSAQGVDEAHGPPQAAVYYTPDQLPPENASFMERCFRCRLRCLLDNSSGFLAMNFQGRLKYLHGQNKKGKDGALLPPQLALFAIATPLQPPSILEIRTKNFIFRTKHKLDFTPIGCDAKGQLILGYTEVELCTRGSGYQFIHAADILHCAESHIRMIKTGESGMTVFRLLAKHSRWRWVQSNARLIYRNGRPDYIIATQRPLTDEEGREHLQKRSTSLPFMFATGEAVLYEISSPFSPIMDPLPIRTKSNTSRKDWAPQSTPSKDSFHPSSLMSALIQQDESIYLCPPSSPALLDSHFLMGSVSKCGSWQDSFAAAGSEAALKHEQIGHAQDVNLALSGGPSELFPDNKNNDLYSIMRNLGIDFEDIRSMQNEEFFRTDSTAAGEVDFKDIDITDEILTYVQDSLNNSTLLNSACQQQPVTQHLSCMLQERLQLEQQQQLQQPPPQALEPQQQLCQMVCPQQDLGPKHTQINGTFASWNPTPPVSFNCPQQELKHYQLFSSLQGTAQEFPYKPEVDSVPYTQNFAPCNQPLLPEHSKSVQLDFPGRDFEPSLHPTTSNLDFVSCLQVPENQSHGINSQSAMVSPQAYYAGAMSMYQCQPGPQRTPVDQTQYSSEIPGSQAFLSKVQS
Experimental: as §1, §2, §3

T1 sequence (P0A7C2+P30561 fused with the stated changes): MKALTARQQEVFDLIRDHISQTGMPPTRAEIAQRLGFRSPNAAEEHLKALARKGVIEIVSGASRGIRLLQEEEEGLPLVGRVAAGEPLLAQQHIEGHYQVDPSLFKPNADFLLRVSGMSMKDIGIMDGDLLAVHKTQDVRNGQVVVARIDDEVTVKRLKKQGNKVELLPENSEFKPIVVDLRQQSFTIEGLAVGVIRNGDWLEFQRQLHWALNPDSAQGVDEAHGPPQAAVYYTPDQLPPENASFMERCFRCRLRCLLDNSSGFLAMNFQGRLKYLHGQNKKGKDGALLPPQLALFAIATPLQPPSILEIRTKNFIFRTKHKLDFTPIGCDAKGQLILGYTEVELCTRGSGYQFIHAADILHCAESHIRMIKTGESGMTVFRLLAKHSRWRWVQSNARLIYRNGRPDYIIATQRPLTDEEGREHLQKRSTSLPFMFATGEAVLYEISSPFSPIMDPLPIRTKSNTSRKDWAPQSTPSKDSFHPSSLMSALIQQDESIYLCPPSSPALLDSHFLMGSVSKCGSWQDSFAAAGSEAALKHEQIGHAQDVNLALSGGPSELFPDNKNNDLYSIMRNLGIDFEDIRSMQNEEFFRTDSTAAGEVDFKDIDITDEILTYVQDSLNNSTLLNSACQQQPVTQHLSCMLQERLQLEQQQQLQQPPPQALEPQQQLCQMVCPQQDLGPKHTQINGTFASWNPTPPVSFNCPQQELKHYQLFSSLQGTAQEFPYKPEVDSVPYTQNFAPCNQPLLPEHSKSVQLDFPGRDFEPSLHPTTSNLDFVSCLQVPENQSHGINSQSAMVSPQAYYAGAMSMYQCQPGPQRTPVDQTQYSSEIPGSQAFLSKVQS
full-length human AHR, sequence (P27540 1-774 isoform P27540-2 partner, one chain of several): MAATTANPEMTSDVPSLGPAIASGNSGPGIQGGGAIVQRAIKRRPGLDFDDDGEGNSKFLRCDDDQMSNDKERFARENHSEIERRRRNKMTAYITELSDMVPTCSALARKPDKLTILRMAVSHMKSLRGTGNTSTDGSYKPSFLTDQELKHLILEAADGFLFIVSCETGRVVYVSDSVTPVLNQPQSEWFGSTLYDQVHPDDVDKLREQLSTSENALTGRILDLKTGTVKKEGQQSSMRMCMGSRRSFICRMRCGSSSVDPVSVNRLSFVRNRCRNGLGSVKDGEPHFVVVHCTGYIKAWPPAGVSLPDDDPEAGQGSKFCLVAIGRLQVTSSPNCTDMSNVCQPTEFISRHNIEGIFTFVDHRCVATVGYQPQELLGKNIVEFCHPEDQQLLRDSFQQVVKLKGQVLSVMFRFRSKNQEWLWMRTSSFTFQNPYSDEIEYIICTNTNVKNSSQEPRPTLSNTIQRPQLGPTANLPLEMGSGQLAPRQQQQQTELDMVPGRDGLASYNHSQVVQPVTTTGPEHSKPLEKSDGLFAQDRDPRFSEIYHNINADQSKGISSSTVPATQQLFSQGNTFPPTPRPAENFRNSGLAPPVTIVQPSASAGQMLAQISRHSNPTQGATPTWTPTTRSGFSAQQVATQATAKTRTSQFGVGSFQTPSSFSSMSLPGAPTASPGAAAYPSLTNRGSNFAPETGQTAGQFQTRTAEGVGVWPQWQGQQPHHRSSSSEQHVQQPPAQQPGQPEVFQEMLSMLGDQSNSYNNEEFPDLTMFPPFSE

SMILES | Kd [1] [nM] | EC50 [2] [nM] | activation of the AHR over background (β-galactosidase) [2] [fold] | induction of lac Z activity over background [3] [fold] | inhibition of photoaffinity labeling of the receptor [4] | inhibition of photoaffinity labeling of the receptor [5] | EC50 ([3]; yeast GRS4 with pEGAHRNΔ166 and pSH18-34, agonist 16-18 hours, read-out: EC50 (LexA operator lacZ reporter)) [nM]
O=c1cc(-c2ccccc2)oc2c1ccc1ccccc12 [αNF, α-naphthoflavone] | 29 | 800 | 12 | 90 |  |  | 
O=c1cc(-c2ccccc2)oc2ccc3ccccc3c12 [βNF, β-naphthoflavone] | […] | 79 | 12 | 90 | inhibited the labeling of the receptors | inhibited the labeling of the receptors | 61
